Results from a melting point compilation (Tetko et al.).

conditions: a range is the spread between reports

| Compound | melting point [°C] |
| --- | --- |
| Nc1ccc([N+](=O)[O-])cc1C(=O)c1ccccc1 | 163 to 167 |
| CCCCCCCC | -57 to -56.8 |
| CCCCCCCCCCCCCCCCCCCC(=O)O | 75 to 75.4 |
| NC1CCCCC1 | -18 to -17 |
| CN1C(=O)CCC1=O | 66 to 71 |
| COCOC | -105 |
| CCCCCCCCCCCCCC(=O)OCC | 12 to 12.3 |
| O=C(O)CCCCC1SCC2NC(=O)NC21 (centres undefined) | 230 to 232 |
| BrCc1ccc(CBr)cc1 | 142 to 144 |
| N#CCCC#N | 54 to 56 |
| [O-][N+](=Nc1ccccc1)c1ccccc1 | 35 to 36 |
| NC(=O)C(Cl)Cl | 99 to 99.4 |
| N#CNC(=N)N | 208 to 211 |
| CCOC(=O)CCCCCCCCC(=O)OCC | 2 to 5 |
| ClCCCBr | -59 to -58.9 |
| OCCN1CCCCC1 | 16 to 17.9 |
| COc1c(Cl)cc(Cl)cc1Cl | 61 to 61.5 |
| CC(CCC(=O)O)C1CCC2C3C(O)CC4CC(O)CCC4(C)C3CC(O)C12C (centres undefined) | 198 to 201 |
| O=C(O)c1cccc(Cl)c1 | 156 to 158 |
| C1COCOC1 | -45 to -42 |
| CC(Br)C(Br)C(=O)O (centres undefined) | 85 to 87 |
| C1CCOC1 | -108 |

| Compound | melting point [°C] |
| --- | --- |
| CC1(C)CCCCC1 | -33.3 to -33 |
| C=C(C)CCCCCC | -78 to -77.8 |
| Nc1ccccc1[N+](=O)[O-] | 71 to 73 |
| CCCCCCS | -81 to -80 |
| CC(C)C(O)C(C)(C)CO (centres undefined) | 51.5 to 52 |
| O=C1CCCC(=O)C1 | 103 to 106 |
| C=C(CC)CC | -132 |
| CCc1nnc(N)s1 | 200 to 201 |
| CCNC(=S)NCC | 77 to 78 |
| CCCCCCCCCCCCCCCCBr | 17 to 18 |
| CCCCCCCCC(=O)Cl | -61 to -60.5 |
| C#CC1(O)CCCCC1 | 31.5 to 33 |
| COC(=O)c1c(Cl)c(Cl)c(C(=O)OC)c(Cl)c1Cl | 155 to 157 |
| CCCCCCCCCCCCCC | 5.5 to 6 |
| CN1CCCC1=O | -24 to -23 |
| COC(=O)C(Cl)Cl | -52 to -51.9 |
| Oc1cccc(Cl)c1 | 32 to 34 |
| ClC1C(Cl)C(Cl)C(Cl)C(Cl)C1Cl (centres undefined) | 159 to 160 |
| C=CC(CC)CC | -128 to -127 |
| O=C(Cl)CCCCCCCCC(=O)Cl | -5 to -2.5 |
| BrCCCBr | -34.2 to -34 |
| BrCCCCCCBr | -2.3 to 2 |

| Compound | melting point [°C] |
| --- | --- |
| C=CCCCCCCCCCCCC | -13 to -12 |
| CCCC(C)Br (centres undefined) | -96 to -95.5 |
| CCCCCCCCCCCCCCCCCCCCCCCCCCCCC | 63.7 to 66 |
| OC1CCCCCCCCCCC1 | 76 to 78 |
| ClCCl | -97 to -95 |
| BrC1CCCCC1 | -57 to -56.5 |
| Cc1cccc(C#N)c1 | -27 to -23 |
| CCOC(=O)C(NC(C)=O)C(=O)OCC | 96.3 to 98 |
| BrC(Br)Br | 8 to 9 |
| NNc1ccccc1 | 19 to 19.6 |
| COCCOC(C)=O | -65.1 to -65 |
| NNc1c(F)c(F)c(F)c(F)c1F | 75 to 76 |
| Cc1ccc(N)cc1 | 43 to 44 |
| ClC(Cl)(Cl)Br | -6 to -5.7 |
| ClC(Cl)Br | -57 to -55 |
| CC(C)(CC(=O)O)CC(=O)O | 101 to 104 |
| O=C1CCCCCN1 | 69 to 70 |
| CN(C)C(=O)C(c1ccccc1)c1ccccc1 | 134 to 135 |
| CCC(O)(CC)CC | -13 to -12.5 |
| C1CCC1 | -91 to -90.6 |
| Clc1cccc(Cl)c1Cl | 52.6 to 55 |
| CC#CC | -32.3 to -32 |

| Compound | melting point [°C] |
| --- | --- |
| C=CCCCCCCCC | -66.3 to -66 |
| C=CC | -185 |
| CC(Cl)Cl | -97 to -96.9 |
| c1ccc2c(c1)CCCC2 | -36 to -31 |
| N#CCc1ccc(O)cc1 | 69 to 71 |
| OCC(CO)(CO)COCC(CO)(CO)CO | 217 to 221 |
| O=C(O)CCCCCC(=O)O | 104 to 106 |
| CCN1CCOCC1 | -64 to -63 |
| CCCC=C(C)C | -130 |
| CCCCS | -116 |
| S=C=Nc1ccc(Br)cc1 | 58 to 60.5 |
| CN1C(=O)OC(C)(C)C1=O | 46 to 47 |
| Cc1c(N)cccc1[N+](=O)[O-] | 90 to 92 |
| CCCCCCCCCCN | 13 to 17 |
| COc1cc(OC)c(OC)cc1C=O | 113 to 114 |
| O=C(O)C1CSCN1 (centres undefined) | 195 to 196 |
| Sc1ccccn1 | 127 to 129 |
| CC1(C)OC(=O)NC1=O | 76.5 to 79 |
| Nc1cc([N+](=O)[O-])cc([N+](=O)[O-])c1 | 161 to 163 |
| CC(=O)OC(C)C | -73.4 to -73 |
| O=C(CBr)c1ccccc1 | 49 to 50.5 |

The next lines start with the values.

| melting point [°C] | Compound |
| --- | --- |
| 131 to 132 | S=C=Nc1ccc(N=C=S)cc1 |
| 172 to 173 | N#Cc1ccccc1C(N)=O |
| 56 to 57 | O=C(c1ccccc1)c1cccs1 |
| 260 to 262 | O=C1OC(c2ccc(O)cc2)(c2ccc(O)cc2)c2ccccc21 |
| 64 to 64.5 | Brc1cc2ccccc2c2ccccc12 |
| 80 to 83 | COC(=O)c1ccc(Cl)c([N+](=O)[O-])c1 |
| 67 to 71 | O=C(Oc1ccccc1)c1ccccc1 |
| 96.5 to 98 | CCC(=O)c1cc(O)ccc1O |
| 52 to 54.5 | COc1cc(OC)cc(OC)c1 |
| 200 to 203 | O=C1Nc2ccccc2C1=O |
| 36 to 38 | OCc1ccc(Cl)c(Cl)c1 |
| 166 to 168 | NNC(=O)c1ccc(Br)cc1 |
| 127 to 129 | O=C(C=NO)c1ccccc1 |
| 90 to 91 | OCCc1ccc(O)cc1 |
| -63.4 to -63 | Cc1cccs1 |
| -56 to -53.5 | CC(C)C(=O)OC(=O)C(C)C |
| -19.4 to -19 | CCCCOc1ccccc1 |
| 100 to 101 | O=Cc1cc(Cl)ccc1O |
| 63 to 68 | O=Cc1cc(Cl)cc(Cl)c1 |
| 123 to 125 | Nc1cccc(O)c1 |
| 145 to 150 | Oc1ccncc1 |
| 47 to 50 | CC(=O)c1cc(C)ccc1O |

| melting point [°C] | Compound |
| --- | --- |
| 138 to 139 | O=C(O)c1cc(Cl)ccc1[N+](=O)[O-] |
| 97 to 99 | O=Cc1ccccc1C(=O)O |
| 18 to 21 | O=C(OCc1ccccc1)c1ccccc1 |
| 72 to 73.8 | Cc1ccc2cccc(O)c2n1 |
| 230 to 234 | O=C(O)c1ccc([N+](=O)[O-])c(O)c1 |
| 234 to 238 | N#Cc1ccc(-c2ccc(C#N)cc2)cc1 |
| 258 to 260 | CC(=O)Nc1nnc(S(N)(=O)=O)s1 |
| 196 to 197 | O=Cc1c[nH]c2ccccc12 |
| 97.5 to 98 | O=C(O)CCOc1ccccc1 |
| 43 to 46 | O=[N+]([O-])c1cccc(Cl)c1 |
| 81 to 83 | Brc1ccc(Br)c2ccccc12 |
| 179 to 182 | NC(=S)NS(=O)(=O)c1ccc(N)cc1 |
| 73.5 to 74 | Fc1ccccc1-c1ccccc1 |
| 109 to 112 | Cc1cccc(C(=O)O)c1 |
| 52 to 54.8 | OC1CCc2ccccc21 (centres undefined) |
| 172 to 173 | CC(CCC(=O)O)(c1ccc(O)cc1)c1ccc(O)cc1 |
| 146 to 150 | O=C(O)c1ccccc1Br |
| 99 to 100 | CCC(=O)c1ccc(O)cc1O |
| 35 to 36.5 | O/N=C\c1ccccc1 |
| 70 to 72 | COc1cccc(CC(=O)O)c1 |
| 131 to 132 | Oc1ccccc1-c1nc2ccccc2s1 |
| 34.8 to 36 | N#Cc1ccc(F)cc1 |

| melting point [°C] | Compound |
| --- | --- |
| 151 to 153 | Cc1ccc(O)c(C(=O)O)c1 |
| -39.4 to -38 | c1ccsc1 |
| 141 to 143 | O=C(O)c1c(F)cc(F)cc1F |
| 107 to 109 | Cc1c(N)c(=O)n(-c2ccccc2)n1C |
| -22.5 to -22 | C=CCCC(=O)O |
| 111 to 113 | c1cc(-c2ccncc2)ccn1 |
| 153 to 154 | BrC(c1ccccc1)(c1ccccc1)c1ccccc1 |
| -5 to -2.4 | O=[N+]([O-])c1cccc(C(F)(F)F)c1 |
| -7 to -6 | Cc1cccc(C)n1 |
| 180 to 184 | CN(C)C(N)=O |
| 44 to 46.5 | O=[N+]([O-])c1cccs1 |
| 286 to 287 | O=c1cc(-c2ccccc2)oc2cc(O)cc(O)c12 |
| 104 to 108 | Cc1ccccc1C(=O)O |
| 112 to 115 | O=C(O)c1ccccc1-c1ccccc1 |
| 50 to 54 | O=[N+]([O-])c1ccccc1I |
| -8 to -7.5 | Nc1ccc(F)cc1F |
| 27 to 29 | C=Cc1ccc([N+](=O)[O-])cc1 |
| 162 to 167 | O=C(O)c1ccc2c(c1)C(=O)OC2=O |
| 61 to 62 | O=Cc1ccc2ccccc2c1 |
| 89 to 90 | Clc1ccc2cc[nH]c2c1 |
| 33.5 to 35 | COc1ccc(N)c(OC)c1 |
| 110 to 111 | CC(=O)Nc1ccccc1C |

| melting point [°C] | Compound |
| --- | --- |
| 185 to 188 | O=C(O)CCC(=O)O |
| 101 to 102 | COc1ccc2c(c1OC)C(=O)OC2 |
| 136 to 137 | O=C(O)c1ccccn1 |
| 49.5 to 50 | Cc1ccc(C)n1-c1ccccc1 |
| 101 to 102 | O=C(O)c1c(F)c(F)c(F)c(F)c1F |
| 63 to 65 | Nc1cccc(N)c1 |
| 196 | CN(C)CCC=C1c2ccccc2CCc2ccccc21 |
| 15 to 16.1 | Oc1ccccc1F |
| 175 to 176 | O=c1c2ccccc2oc2ccccc12 |
| 42 to 43 | O=C=Nc1ccc(Cl)c(Cl)c1 |
| 161 to 162 | NC(=O)c1ccc(O)cc1 |
| 151 to 152 | O=C(CCNNC(=O)c1ccncc1)NCc1ccccc1 |
| 46 to 47 | COc1cc(C=O)cc(OC)c1 |
| 5 to 6 | Cc1cc(Br)ccc1Br |
| 212 to 214 | CC(C(=O)O)c1ccc(N2Cc3ccccc3C2=O)cc1 (centres undefined) |
| 210 to 216 | O=C(O)c1cc(-c2ccc(F)cc2F)ccc1O |
| 214 to 219 | O=C1NC(=O)c2c1cccc2[N+](=O)[O-] |
| 66 to 67 | Clc1ncccn1 |
| 150 to 153 | COc1ccc2cc(OC)ccc2c1 |
| 112 to 113 | CN1CCC(=C2c3ccccc3C=Cc3ccccc32)CC1 |
| 198 to 199 | NC(=O)c1c(Cl)cccc1Cl |
